Data taken from patent publication US12577234B2, “Antagonists of the muscarinic acetylcholine receptor M4” (Vanderbilt University, priority 2017, dated 2026).

Target: T1, human mAChR M4 (Homo sapiens, UniProt P08173)
T1 construct: expressed in transfected cells; host or cells: CHO-K1 (ATCC), stably co-expressing chimeric G protein Gqi5
T1 sequence (P08173 1-479): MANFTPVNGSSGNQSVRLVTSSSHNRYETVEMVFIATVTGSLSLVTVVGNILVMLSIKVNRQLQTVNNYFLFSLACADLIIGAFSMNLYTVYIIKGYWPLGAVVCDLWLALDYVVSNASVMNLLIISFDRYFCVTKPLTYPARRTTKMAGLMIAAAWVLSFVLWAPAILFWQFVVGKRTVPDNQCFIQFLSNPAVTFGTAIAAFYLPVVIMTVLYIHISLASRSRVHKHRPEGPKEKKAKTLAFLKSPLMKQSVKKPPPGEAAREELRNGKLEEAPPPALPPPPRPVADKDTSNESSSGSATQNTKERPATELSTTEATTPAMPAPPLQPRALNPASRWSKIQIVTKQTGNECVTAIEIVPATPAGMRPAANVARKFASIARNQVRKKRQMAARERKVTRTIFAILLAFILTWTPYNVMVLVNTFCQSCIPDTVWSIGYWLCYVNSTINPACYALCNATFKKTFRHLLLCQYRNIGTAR
Assay: mAChR M4 cell-based functional assay (calcium mobilization, EC80 acetylcholine), human M4
Details: for IC50: M4/Gqi5/CHO-K1 cells, decrease of EC80 acetylcholine response; for Emin: human M4, % ACh maximum at 30 μM
Summary of the method: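 CHO-K1 cells stably expressing human M4 with chimeric Gqi5; intracellular calcium rise read on FDSS as fluorescence static ratio at 1 Hz. Compounds in 10-point 1:3 dilution series; IC50 taken as concentration-dependent decrease of the EC80 acetylcholine response, four-parameter logistic fit.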

Row | Compound | IC50 (Table 9) [nM] | Emin (Table 9) [%] | Human M4 Emin (Table 10) [%] | IC50 (Table 10) [nM]
1 | Cc1nn(C)cc1-c1ccc(N[C@H]2C[C@@H]3CN(CC4CC5C=CC4C5)C[C@@H]3C2)nn1 (stereo partly drawn) [Compound 2, (3aR,5s,6aS)-2-(5-bicyclo[2.2.1]hept-2-enylmethyl)-N-[6-(1,3-dimethylpyrazol-4-yl)pyridazin-3-yl]-3,3a,4,5,6,6a-hexahydro-1H-cyclopenta[c]pyrrol-5-amine] | 0.3 | 3.87 |  | 
2 | CCC(C)CN1C[C@H]2C[C@H](Nc3ccc(-c4cc(F)ccc4Cl)nn3)C[C@H]2C1 (stereo partly drawn) [Compound 29, (3aR,5s,6aS)-N-[6-(2-chloro-5-fluoro-phenyl)pyridazin-3-yl]-2-(2-methylbutyl)-3,3a,4,5,6,6a-hexahydro-1H-cyclopenta[c]pyrrol-5-amine] | 2.6 | 7.8 |  | 
3 | Cc1cnn(C)c1-c1ccc(NC[C@H]2C[C@@H]3CN(CC(C)C(C)(C)C)C[C@@H]3C2)nn1 (stereo partly drawn) [Compound 65, N-[[(3aR,5s,6aS)-2-(2,3,3-trimethylbutyl)-3,3a,4,5,6,6a-hexahydro-1H-cyclopenta[c]pyrrol-5-yl]methyl]-6-(2,4-dimethylpyrazol-3-yl)pyridazin-3-amine] | 253 | 4.16 |  | 
4 | Cc1cnn(C)c1-c1ccc(OCC2C[C@@H]3CN(CC45CC6CC(CC(C6)C4)C5)C[C@@H]3C2)nn1 (stereo partly drawn) [Compound 79, (3sR,6aS)-2-(1-adamantylmethyl)-5-[[6-(2,4-dimethylpyrazol-3-yl)pyridazin-3-yl]oxymethyl]-3,3a,4,5,6,6a-hexahydro-1H-cyclopenta[c]pyrrole] | 119 | 3.76 |  | 
5 | Cc1cnn(C)c1-c1ccc(N[C@H]2C[C@@H]3CN(CC4CCCCC4)C[C@@H]3C2)nn1 [Compound 20, (3aR,5s,6aS)-2-(cyclohexylmethyl)-N-[6-(2,4-dimethylpyrazol-3-yl)pyridazin-3-yl]-3,3a,4,5,6,6a-hexahydro-1H-cyclopenta[c]pyrrol-5-amine] | 1 | 7.16 |  | 
6 | Fc1ccc(Cl)c(-c2ccc(OCC3C[C@@H]4CN(Cc5ccccn5)C[C@@H]4C3)nn2)c1 (stereo partly drawn) [Compound 117, (3aR,6aS)-5-[[6-(2-chloro-5-fluoro-phenyl)pyridazin-3-yl]oxymethyl]-2-(2-pyridylmethyl)-3,3a,4,5,6,6a-hexahydro-1H-cyclopenta[c]pyrrole] | 1460 | 4.82 |  | 
7 | O=C(Nc1ccc(-c2ccc(F)cc2Cl)nn1)C1C[C@@H]2CN(CC3CC4C=CC3C4)C[C@@H]2C1 (stereo partly drawn) [Compound 75, (3aR,6aS)-2-(5-bicyclo[2.2.1]hept-2-enylmethyl)-N-[6-(2-chloro-4-fluoro-phenyl)pyridazin-3-yl]-3,3a,4,5,6,6a-hexahydro-1H-cyclopenta[c]pyrrole-5-carboxamide] | 2780 | 3.25 |  | 
8 | Cc1nn(C)cc1-c1ccc(OCC2C[C@@H]3CN(Cc4ccc5c(c4)OCO5)C[C@@H]3C2)nn1 (stereo partly drawn) [Compound 105, (3aR,6aS)-2-(1,3-benzodioxol-5-ylmethyl)-5-[[6-(1,3-dimethylpyrazol-4-yl)pyridazin-3-yl]oxymethyl]-3,3a,4,5,6,6a-hexahydro-1H-cyclopenta[c]pyrrole] | 329 | 5.63 |  | 
9 | Cc1nn(C)cc1-c1ccc(N[C@H]2C[C@@H]3CN(CC(C)C(C)(C)C)C[C@@H]3C2)nn1 (stereo partly drawn) [Compound 4, (3aR,5s,6aS)-N-[6-(1,3-dimethylpyrazol-4-yl)pyridazin-3-yl]-2-(2,3,3-trimethylbutyl)-3,3a,4,5,6,6a-hexahydro-1H-cyclopenta[c]pyrrol-5-amine] | 2 | 2.81 |  | 
10 | CCCC(C)CN1C[C@H]2CC(COc3ccc(-c4cc(F)ccc4Cl)nn3)C[C@H]2C1 (stereo partly drawn) [Compound 110, (3aR,6aS)-5-[[6-(2-chloro-5-fluoro-phenyl)pyridazin-3-yl]oxymethyl]-2-(2-methylpentyl)-3,3a,4,5,6,6a-hexahydro-1H-cyclopenta[c]pyrrole] | 773 | 4.60 |  | 

Next, values leading:

Row | IC50 (Table 9) [nM] | Emin (Table 9) [%] | Human M4 Emin (Table 10) [%] | IC50 (Table 10) [nM] | Compound
11 |  |  | 3 | 5.02 | CC(C)CN1C[C@H]2C[C@H](Nc3ccc(-c4cc(F)ccc4Cl)nn3)C[C@H]2C1 [Compound 177, (3aR,5s,6aS)-N-[6-(2-chloro-5-fluoro-phenyl)pyridazin-3-yl]-2-isobutyl-3,3a,4,5,6,6a-hexahydro-1H-cyclopenta[c]pyrrol-5-amine]
12 |  |  | 26 | 54.9 | Cc1noc(C)c1-c1ccc(N[C@H]2C[C@@H]3CN(CC4CCOCC4)C[C@@H]3C2)nn1 [Compound 210, (3aR,5s,6aS)-N-[6-(3,5-dimethylisoxazol-4-yl)pyridazin-3-yl]-2-(tetrahydropyran-4-ylmethyl)-3,3a,4,5,6,6a-hexahydro-1H-cyclopenta[c]pyrrol-5-amine]
13 | 1.4 |  |  |  | Cc1cccnc1CN1C[C@H]2C[C@H](Nc3ccc(-c4cn(C)nc4C)nn3)C[C@H]2C1 [compound 11]
14 |  |  | 4 | 167 | Cc1cnn(C)c1-c1ccc(OC[C@H]2C[C@@H]3CN(CCC(C)(C)C)C[C@@H]3C2)nn1 [Compound 146, (3aR,5s,6aS)-2-(3,3-dimethylbutyl)-5-[[6-(2,4-dimethylpyrazol-3-yl)pyridazin-3-yl]oxymethyl]-3,3a,4,5,6,6a-hexahydro-1H-cyclopenta[c]pyrrole]
15 |  |  | 4 | 30.8 | Cc1nn(C)cc1-c1cnc(N[C@H]2C[C@@H]3CN(CC4CC5C=CC4C5)C[C@@H]3C2)cn1 (stereo partly drawn) [Compound 154, (3aR,5s,6aS)-2-(5-bicyclo[2.2.1]hept-2-enylmethyl)-N-[5-(1,3-dimethylpyrazol-4-yl)pyrazin-2-yl]-3,3a,4,5,6,6a-hexahydro-1H-cyclopenta[c]pyrrol-5-amine]
16 | 694 | 2.25 |  |  | Cc1cccnc1CN1C[C@H]2CC(COc3ccc(-c4cc(F)ccc4Cl)nn3)C[C@H]2C1 (stereo partly drawn) [Compound 118, (3aR,6aS)-5-[[6-(2-chloro-5-fluoro-phenyl)pyridazin-3-yl]oxymethyl]-2-[(3-methyl-2-pyridyl)methyl]-3,3a,4,5,6,6a-hexahydro-1H-cyclopenta[c]pyrrole]
17 |  |  | 3 | 68.9 | Fc1ccc(Cl)c(-c2ccc(N[C@H]3C[C@@H]4CN(Cc5cn6ccccc6n5)C[C@@H]4C3)nn2)c1 [Compound 165, (3aR,5s,6aS)-N-[6-(2-chloro-5-fluoro-phenyl)pyridazin-3-yl]-2-(imidazo[1,2-a]pyridin-2-ylmethyl)-3,3a,4,5,6,6a-hexahydro-1H-cyclopenta[c]pyrrol-5-amine]
18 |  |  | 3 | 58.3 | CC(=O)Nc1ccc(-c2ccc(O[C@H]3C[C@@H]4CN(CC5CCCCC5)C[C@@H]4C3)nn2)cc1 [Compound 130, N-[4-[6-[[(3aR,5s,6aS)-2-(cyclohexylmethyl)-3,3a,4,5,6,6a-hexahydro-1H-cyclopenta[c]pyrrol-5-yl]oxy]pyridazin-3-yl]phenyl]acetamide]
